Measured values taken from paper PMC6461108, “A catalytic protein–proteomimetic complex: using aromatic oligoamide foldamers as activators of RNase S” (Chemical Science, 2019).
Several values for one entry are separate records, joined by “and”; a condition that tells them apart may be missing. Identical values can stand only once.

Assays:
S-protein [1] = target: T1, S-protein (Bos taurus, UniProt P61823); experiment: Native ESI-MS of S-protein complexes; type: binding, bovine
T1 construct: S-protein22-124; host or cells: none: purchased RNase A digested with subtilisin, S-protein purified by RP-HPLC
T1 sequence (P61823 48-150): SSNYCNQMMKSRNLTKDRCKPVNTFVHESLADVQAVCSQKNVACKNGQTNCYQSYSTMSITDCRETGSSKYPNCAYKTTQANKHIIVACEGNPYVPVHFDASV

RNase S-protein [2] = target: T2, RNase S-protein (Bos taurus, UniProt P61823); experiment: Regulation of S-protein activity by hDM2 (RNA degradation assay); details: hDM2 10 μM; 1a 100 μM or S-peptide 0.4 μM with S-protein
T2 sequence (P61823 47-150 limits assumed): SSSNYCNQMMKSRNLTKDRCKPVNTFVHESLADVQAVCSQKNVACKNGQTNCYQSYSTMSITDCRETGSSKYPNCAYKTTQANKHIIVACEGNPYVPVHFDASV

p53/hDM2 interaction = p53/hDM2 interaction (Homo sapiens, UniProt Q00987); experiment: Fluorescence anisotropy competition assay against p53/hDM2; type: binding; details: FITC-p53 15-31 tracer; for IC50: 50 mM phosphate pH 7.5, 200 mM NaCl, 0.02 mg/mL BSA
Excerpt: The calculation was run to generate 10 000 conformer sets, of which the lowest energy […]
in total) were retained for docking experiments. The lowest energy conformers belong to the same family of conformers and are well superimposed with the first lowest energy […]
protein (from 4YGW) and S-protein in complex with dApTpApApG (1RCN) using Glide XP method.11-13 All of the input ligands gave a pose in the S-protein binding groove. The […]
12, were refined using the induced fit docking against S-protein in complex with the oligonucleotide. Side chains of S-protein binding groove were automatically trimmed (based on B-factor) during docking calculation and restored for the final refinement.
The library of hybrid mimetics were docked as flexible ligands against the S-protein in complex with the oligonucleotide fragment using Glide XP (extra precision) method.11-13 […]
ligands against S-protein in complex with the oligonucleotide fragment using Glide XP method11-13 and refined using induced fit docking (Fig S7).
The fluorescein-labelled p5315-31–Flu 3,4 was purchased from peptide protein research Ltd.
Fluorescence anisotropy assays were performed in 384-well black plates (Greiner Bio-one). Each experiment was run in triplicate and fluorescence anisotropy was measured using a Perkin Elmer EnVisionTM 2103 MultiLabel plate reader. […]
For control wells in both assays, the tracer peptide was replaced with an identical volume of assay buffer. […] Plates were read after 1 h of incubation at room temperature. […]
The average anisotropy (across three experimental replicates) and the standard deviation of these values were then calculated and fit to a sigmoidal logistic model (Equation 3) using OriginPro 9.0 which provided the IC50 and error values. […]
UV absorbance analyses were recorded in a 1 mm path-length quartz cuvette on a Perkin Elmer Lambda 900 UV/VIS/NIR spectrometer.
High-resolution mass spectrometry (HRMS) data was recorded using electrospray ionization in positive mode (ESI+) with a Bruker MaXis Impact spectrometer. […]

RNase S-protein [3] = target: T3, RNase S-protein (Bos taurus, UniProt P61823); experiment: Kinetics of RNA hydrolysis by S-protein with S-peptide or mimetic; details: S-protein 0.05 µM, S-peptide 0.4 µM or 1a 100 µM
T3 sequence (P61823 48-150): T1 sequence (P61823 48-150)

RNase S-protein [4] = target: T3, RNase S-protein; experiment: RNA degradation assay (EtBr fluorescence), reactivation of S-protein; type: biochemical, bovine; parameters: S-protein22-124; host or cells: none: purchased RNase A digested with subtilisin, S-protein purified by RP-HPLC; details: for % remaining fluorescence (100 µM): 100 µM compound, 0.05 µM S-protein, 45 min, 25 °C, Tris pH 6.5
S-protein [5] = target: T1, S-protein; experiment: Isothermal titration calorimetry with S-protein; type: binding, bovine
[6] = S-protein titrated into mimetic, 37 °C

Molecule | S-protein/mimetic complexes detected by native ESI-MS (S-protein [1]; 5-fold excess of mimetic (10 μM) relative to S-protein (2 μM)) | ternary complex in native MS competition with increasing S-peptide (S-protein [1]; S-protein and 1a constant, increasing S-peptide) | effect of added hDM2 on RNA hydrolysis (RNase S-protein [2]) | IC50 (p53/hDM2 interaction) | V0, average initial rate of RNA degradation (RNase S-protein [3]; CRNA 50) [g/mL/s] | V0, average initial rate of RNA degradation (RNase S-protein [3]; CRNA 75) [g/mL/s] | V0, average initial rate of RNA degradation (RNase S-protein [3]; CRNA 125) [g/mL/s] | V0, average initial rate of RNA degradation (RNase S-protein [3]; CRNA 200) [g/mL/s] | V0, average initial rate of RNA degradation (RNase S-protein [3]; CRNA 300) [g/mL/s] | V0, average initial rate of RNA degradation (RNase S-protein [3]; CRNA 425) [g/mL/s] | V0, average initial rate of RNA degradation (RNase S-protein [3]; CRNA 575) [g/mL/s] | % remaining fluorescence (100 µM) (RNase S-protein [4]) [%] | activity in RNA degradation assay at a single concentration (SAR set 1a-1d) (RNase S-protein [4]; single concentration, 20 µL of 1 mM stock in 200 µL) | Kd (S-protein [5]) [µM] | H (kcal/mol), ITC (S-protein [5]; [6]) [kcal/mol] | S (cal/molK), ITC (S-protein [5]; [6]) [cal/molK] | n (ITC stoichiometry) (S-protein [5]; [6]) | competition with fluorescently labelled p53 peptide for hDM2 (p53/hDM2 interaction)
CC(C)Oc1cc(NC(=O)[C@H](Cc2ccccc2)NC(=O)c2ccc(N)c(OCc3ccc(Cl)cc3)c2)ccc1C(=O)NCC(=O)O [Compound 1a] | 1 : 1 complex and a lower intensity 1 : 2 S-protein/mimetic 1a complex could be detected | no ternary complex could be detected | suppressed | 10.9 µM and ~10 µM | 0.016 ± 0.001 | 0.04 ± 0.004 | 0.088 ± 0.009 | 0.126 ± 0.011 | 0.168 ± 0.016 | 0.211 ± 0.032 | 0.254 ± 0.053 | 40 | active | 1.85 ± 0.97 | -19.04 ± 1.90 | -35.2 | 0.089 and 0.1 | 
CC(C)Oc1cc(NC(=O)[C@H](Cc2ccccc2)NC(=O)c2ccc(N)c(OCc3ccc4ccccc4c3)c2)ccc1C(=O)NCC(=O)O [Compound 4] |  |  |  | 8.1 ± 0.3 µM |  |  |  |  |  |  |  | 44 |  |  |  |  |  | 
Ac-KETAAAKFERQHMDS-NH2 [S-peptide, reference compound] |  |  | no effect on catalysis |  | 0.057 ± 0.002 | 0.097 ± 0.004 | 0.159 ± 0.008 | 0.226 ± 0.011 | 0.296 ± 0.029 | 0.362 ± 0.037 | 0.431 ± 0.050 |  |  | 0.13 ± 0.02 |  |  |  | did not compete
